ChEMBL document CHEMBL1148514, “Development of lipopeptides for inhibiting 20S proteasomes” (Bioorg Med Chem Lett, 2006)
pKi: −log10 of the molar value. Residues, ends and D or L forms follow the SMILES beside them.

How the values were obtained:
[1] = target: T1, Proteasome component C5 (Saccharomyces cerevisiae S288c, UniProt P23724); assay: Inhibition of post acid activity of yeast 20S proteasome
T1 sequence (P23724 whole entry): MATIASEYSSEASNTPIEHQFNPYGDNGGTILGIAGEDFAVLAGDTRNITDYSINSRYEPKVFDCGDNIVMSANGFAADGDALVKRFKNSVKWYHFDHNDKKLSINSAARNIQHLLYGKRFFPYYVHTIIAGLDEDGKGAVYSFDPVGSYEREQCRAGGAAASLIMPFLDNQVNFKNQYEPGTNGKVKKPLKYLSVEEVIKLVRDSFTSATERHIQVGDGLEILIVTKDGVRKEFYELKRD

[2] = target: T2, Proteasome Macropain subunit (Saccharomyces cerevisiae S288c) (UniProt P22141); assay: Inhibition of trypsin like activity of yeast 20S proteasome at 80 uM
T2 sequence (whole entry): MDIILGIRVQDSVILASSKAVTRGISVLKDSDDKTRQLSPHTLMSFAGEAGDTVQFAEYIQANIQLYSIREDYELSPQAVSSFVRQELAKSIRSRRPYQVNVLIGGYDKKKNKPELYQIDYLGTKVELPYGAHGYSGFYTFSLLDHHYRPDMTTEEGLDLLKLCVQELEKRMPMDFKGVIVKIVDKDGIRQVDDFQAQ

[3] = target: T3, Proteasome Macropain subunit PRE2 (Saccharomyces cerevisiae S288c, UniProt P30656); assay: Inhibition of chymotrypsin like activity of yeast 20S proteasome
T3 sequence (P30656 whole entry): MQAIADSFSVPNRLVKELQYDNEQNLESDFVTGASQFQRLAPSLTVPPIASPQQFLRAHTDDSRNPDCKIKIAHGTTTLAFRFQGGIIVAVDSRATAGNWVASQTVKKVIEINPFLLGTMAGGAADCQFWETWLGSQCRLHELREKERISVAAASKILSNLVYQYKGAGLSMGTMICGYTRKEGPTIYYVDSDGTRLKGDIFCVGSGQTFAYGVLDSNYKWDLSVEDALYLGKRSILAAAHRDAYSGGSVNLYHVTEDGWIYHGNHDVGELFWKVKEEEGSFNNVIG

[4] = target: T4, Proteasome Macropain subunit (Saccharomyces cerevisiae S288c, UniProt P22141); assay: Inhibition of trypsin like activity of yeast 20S proteasome
T4 sequence (P22141 whole entry): T2 sequence (whole entry)

[5] = target: T5, Proteasome component C5 (Saccharomyces cerevisiae S288c) (UniProt P23724); assay: Inhibition of post acid activity of yeast 20S proteasome at 80 uM
T5 sequence (whole entry): T1 sequence (P23724 whole entry)

[6] = target: T5, Proteasome component C5 (Saccharomyces cerevisiae S288c); assay: Activation of post acid activity of yeast 20S proteasome
[7] = target: T2, Proteasome Macropain subunit (Saccharomyces cerevisiae S288c); assay: Inhibition of trypsin like activity of yeast 20S proteasome at 625 uM
[8] = target: T6, Proteasome Macropain subunit PRE2 (Saccharomyces cerevisiae S288c) (UniProt P30656); assay: Inhibition of chymotrypsin like activity of yeast 20S proteasome at 80 uM
T6 sequence (whole entry): T3 sequence (P30656 whole entry)

| Compound | pKi [1] | inhibition [2] | pKi [3] | also measured |
| --- | --- | --- | --- | --- |
| CCCCCC(=O)N[C@@H](Cc1ccc(O)cc1)C(=O)N[C@@H](CCC(=O)O)C(=O)N[C@@H](CC(C)C)C(=O)O (HELM PEPTIDE1{[CCCCCC(=O)[*:2]].Y.E.L}$$$$V2.0) | 4.23 | < 10% | < 4.10 |  |
| CCCCCCCCCCCCCCCC(=O)N[C@@H](Cc1ccc(O)cc1)C(=O)N[C@@H](CCC(=O)O)C(=O)N[C@@H](CC(C)C)C(=O)O (HELM PEPTIDE1{[CCCCCCCCCCCCCCCC(=O)[*:2]].Y.E.L}$$$$V2.0) | 4.82 |  | 4.74 | pKi [4]: < 4.10 |
| CCCCCCCCCC(=O)N[C@H](C(=O)N[C@H](C(=O)N[C@H](C(=O)N[C@@H](Cc1ccccc1)C(=O)N[C@@H](CC(=O)O)C(=O)N[C@@H](Cc1ccc(O)cc1)C(=O)O)[C@@H](C)O)[C@@H](C)CC)[C@@H](C)O (HELM PEPTIDE1{[CCCCCCCCCC(=O)[*:2]].T.I.T.F.D.Y}$$$$V2.0) |  |  | 4.43 |  |
| CCCCCCCCCCCCCCCC(=O)N[C@@H](Cc1ccccc1)C(=O)N[C@@H](CCCCN)C(=O)N[C@@H](Cc1ccccc1)C(=O)O (HELM PEPTIDE1{[CCCCCCCCCCCCCCCC(=O)[*:2]].F.K.F}$$$$V2.0) |  |  | 4.52 | inhibition [5]: < 10%; pKi [4]: < 4.10 |
| CCCCCCCCCCCC(=O)N[C@H](C(=O)N[C@H](C(=O)N[C@H](C(=O)N[C@@H](Cc1ccc(O)cc1)C(=O)N[C@@H](CCCCN)C(=O)N[C@@H](Cc1ccccc1)C(=O)O)[C@@H](C)O)C(C)C)[C@@H](C)O (HELM PEPTIDE1{[CCCCCCCCCCCC(=O)[*:2]].T.V.T.Y.K.F}$$$$V2.0) |  |  | < 4.10 | pKi [4]: 4.17; Activity [6]: 1.2 |
| CCCCCCCCCCCCCCCC(=O)N[C@@H](Cc1ccc(O)cc1)C(=O)N[C@@H](CCC(=O)O)C(=O)N[C@H](C(=O)O)[C@@H](C)O (HELM PEPTIDE1{[CCCCCCCCCCCCCCCC(=O)[*:2]].Y.E.T}$$$$V2.0) | 4.68 |  | 4.70 |  |
| CCCCCCCCCCCCCCCC(=O)N[C@@H](Cc1ccc(O)cc1)C(=O)N[C@@H](CCCCN)C(=O)N[C@@H](Cc1ccccc1)C(=O)O (HELM PEPTIDE1{[CCCCCCCCCCCCCCCC(=O)[*:2]].Y.K.F}$$$$V2.0) |  |  | 4.09 | inhibition [5]: < 10%; pKi [4]: < 4.10 |
| CCCCCCCCCCCCCCC(N)C(=O)N[C@@H](Cc1ccc(O)cc1)C(=O)N[C@@H](CCC(=O)O)C(=O)N[C@H](C(=O)O)[C@@H](C)O (stereo not given in full) (HELM PEPTIDE1{[CCCCCCCCCCCCCCC(N)C(=O)[*:2]].Y.E.T}$$$$V2.0) | 5.10 |  | 5.30 |  |
| H-TVTFKF-OH | 3.83 |  | 3.86 | inhibition [7]: < 10% |
| CCCCCCCCCCCCCCC(N)C(=O)O (stereo not given) |  | < 10% |  | inhibition [5]: < 10%; inhibition [8]: < 10% |
| CCCCCCCC(=O)N[C@H](C(=O)N[C@H](C(=O)N[C@H](C(=O)N[C@@H](Cc1ccccc1)C(=O)N[C@@H](CC(=O)O)C(=O)N[C@@H](Cc1ccc(O)cc1)C(=O)O)[C@@H](C)O)[C@@H](C)CC)[C@@H](C)O (HELM PEPTIDE1{[CCCCCCCC(=O)[*:2]].T.I.T.F.D.Y}$$$$V2.0) | < 4.10 | < 10% | 4.37 |  |
| CCCCCC(=O)N[C@H](C(=O)N[C@H](C(=O)N[C@H](C(=O)N[C@@H](Cc1ccccc1)C(=O)N[C@@H](CC(=O)O)C(=O)N[C@@H](Cc1ccc(O)cc1)C(=O)O)[C@@H](C)O)[C@@H](C)CC)[C@@H](C)O (HELM PEPTIDE1{[CCCCCC(=O)[*:2]].T.I.T.F.D.Y}$$$$V2.0) |  | < 10% | 4.47 | inhibition [5]: < 10% |
| CCCCCCCCCCCC(=O)N[C@H](C(=O)N[C@H](C(=O)N[C@H](C(=O)N[C@@H](Cc1ccccc1)C(=O)N[C@@H](CC(=O)O)C(=O)N[C@@H](Cc1ccc(O)cc1)C(=O)O)[C@@H](C)O)[C@@H](C)CC)[C@@H](C)O (HELM PEPTIDE1{[CCCCCCCCCCCC(=O)[*:2]].T.I.T.F.D.Y}$$$$V2.0) | < 4.10 |  | < 4.10 | pKi [4]: < 4.10 |
| CCCCCCCC(=O)N[C@H](C(=O)N[C@H](C(=O)N[C@H](C(=O)N[C@@H](Cc1ccccc1)C(=O)N[C@@H](CCCCN)C(=O)N[C@@H](Cc1ccccc1)C(=O)O)[C@@H](C)O)C(C)C)[C@@H](C)O (HELM PEPTIDE1{[CCCCCCCC(=O)[*:2]].T.V.T.F.K.F}$$$$V2.0) |  |  | < 4.10 |  |
| CCCCCC(=O)N[C@H](C(=O)N[C@H](C(=O)N[C@H](C(=O)N[C@@H](Cc1ccccc1)C(=O)N[C@@H](CCCCN)C(=O)N[C@@H](Cc1ccccc1)C(=O)O)[C@@H](C)O)C(C)C)[C@@H](C)O (HELM PEPTIDE1{[CCCCCC(=O)[*:2]].T.V.T.F.K.F}$$$$V2.0) |  | < 10% | 4.37 | inhibition [5]: < 10% |
| CCCCCCCCCCCCCCCC(=O)N[C@H](C(=O)N[C@H](C(=O)N[C@H](C(=O)N[C@@H](Cc1ccccc1)C(=O)N[C@@H](CC(=O)O)C(=O)N[C@@H](Cc1ccc(O)cc1)C(=O)O)[C@@H](C)O)[C@@H](C)CC)[C@@H](C)O (HELM PEPTIDE1{[CCCCCCCCCCCCCCCC(=O)[*:2]].T.I.T.F.D.Y}$$$$V2.0) |  | < 10% | 4.10 | Activity [6]: 1.5 |

| Compound | pKi [1] | inhibition [2] | pKi [3] | also measured |
| --- | --- | --- | --- | --- |
| H-TVSYKF-OH | < 3.20 |  | < 3.20 | inhibition [7]: < 10% |
| CCCCCCCCCCCCCCCC(=O)OC |  | < 10% |  | inhibition [5]: < 10%; inhibition [8]: < 10% |
| H-TITFDY-OH | < 3.20 |  | < 3.20 | inhibition [7]: < 10% |
| CCCCCCCCCC(=O)N[C@H](C(=O)N[C@H](C(=O)N[C@H](C(=O)N[C@@H](Cc1ccccc1)C(=O)N[C@@H](CCCCN)C(=O)N[C@@H](Cc1ccccc1)C(=O)O)[C@@H](C)O)C(C)C)[C@@H](C)O (HELM PEPTIDE1{[CCCCCCCCCC(=O)[*:2]].T.V.T.F.K.F}$$$$V2.0) |  |  | 4.55 |  |
| CCCCCCCCCCCCCCCC(=O)N[C@@H](Cc1ccc(O)cc1)C(=O)N[C@@H](CC(=O)O)C(=O)N[C@@H](CC(C)C)C(=O)O (HELM PEPTIDE1{[CCCCCCCCCCCCCCCC(=O)[*:2]].Y.D.L}$$$$V2.0) | 4.82 |  | 4.70 | pKi [4]: < 4.10 |
| CCCCCCCCCCCCCCCC(=O)N[C@@H](Cc1ccc(O)cc1)C(=O)N[C@@H](CC(N)=O)C(=O)N[C@H](C(=O)O)[C@@H](C)O (HELM PEPTIDE1{[CCCCCCCCCCCCCCCC(=O)[*:2]].Y.N.T}$$$$V2.0) |  |  | 4.52 |  |
| N[C@@H](Cc1ccc(O)cc1)C(=O)N[C@@H](CCC(=O)O)C(=O)N[C@@H](CC(=O)O)C(=O)O (H-Tyr-Glu-Asp-OH) |  | < 10% |  | inhibition [5]: < 10%; inhibition [8]: < 10% |
| CCCCCCCCCC(=O)N[C@H](C(=O)N[C@H](C(=O)N[C@H](C(=O)N[C@@H](Cc1ccc(O)cc1)C(=O)N[C@@H](CCCCN)C(=O)N[C@@H](Cc1ccccc1)C(=O)O)[C@@H](C)O)C(C)C)[C@@H](C)O (HELM PEPTIDE1{[CCCCCCCCCC(=O)[*:2]].T.V.T.Y.K.F}$$$$V2.0) |  | < 10% | 4.14 | Activity [6]: 1.2 |
| CCCCCCCCCC(=O)N[C@@H](Cc1ccc(O)cc1)C(=O)N[C@@H](CCC(=O)O)C(=O)N[C@@H](CC(C)C)C(=O)O (HELM PEPTIDE1{[CCCCCCCCCC(=O)[*:2]].Y.E.L}$$$$V2.0) | 4.14 | < 10% |  | inhibition [8]: < 10% |
| CC(C)C[C@H](NC(=O)[C@H](CCC(=O)O)NC(=O)[C@@H](N)Cc1ccc(O)cc1)C(=O)O (H-Tyr-Glu-Leu-OH) |  | < 10% |  | inhibition [5]: < 10%; inhibition [8]: < 10% |
| H-TISYDY-OH | < 3.20 |  | < 3.20 | inhibition [7]: < 10% |
| CCCCCC(=O)N[C@H](C(=O)N[C@H](C(=O)N[C@H](C(=O)N[C@@H](Cc1ccc(O)cc1)C(=O)N[C@@H](CCCCN)C(=O)N[C@@H](Cc1ccccc1)C(=O)O)[C@@H](C)O)C(C)C)[C@@H](C)O (HELM PEPTIDE1{[CCCCCC(=O)[*:2]].T.V.T.Y.K.F}$$$$V2.0) |  |  | 4.10 | inhibition [5]: < 10%; pKi [4]: 3.50 |
| H-TVTYKY-OH | < 3.20 |  | < 3.20 | inhibition [7]: < 10% |
| H-TITYDL-OH | < 3.20 |  | 3.21 | inhibition [7]: < 10% |
| CCCCCCCCCCCC(=O)N[C@@H](Cc1ccc(O)cc1)C(=O)N[C@@H](CCC(=O)O)C(=O)N[C@@H](CC(C)C)C(=O)O (HELM PEPTIDE1{[CCCCCCCCCCCC(=O)[*:2]].Y.E.L}$$$$V2.0) | 4.21 |  |  | pKi [4]: < 4.10; inhibition [8]: < 10% |
| CCCCCCCCCCCCCC(=O)N[C@H](C(=O)N[C@H](C(=O)N[C@H](C(=O)N[C@@H](Cc1ccc(O)cc1)C(=O)N[C@@H](CCCCN)C(=O)N[C@@H](Cc1ccccc1)C(=O)O)[C@@H](C)O)C(C)C)[C@@H](C)O (HELM PEPTIDE1{[CCCCCCCCCCCCCC(=O)[*:2]].T.V.T.Y.K.F}$$$$V2.0) |  |  |  | pKi [4]: 4.10; Activity [6]: 1.2 |
